This is an account of results in patent publication US10227345B2, “Compounds and methods for inhibiting fascin” (Cornell University, priority 2014, dated 2019).

The test concerns the target T1, human fascin 1 (Homo sapiens, UniProt Q16658).
T1 construct: GST (N, cleaved yes); made in house; host or cells: Escherichia coli BL21/DE3 (pGEX4T-fascin 1 plasmid)
Put plainly: Fascin inhibition (actin bundling) assay, image-based. Format: biochemical. The settings on record: in the presence of 50 μm of the compound relative to bundle activity when the compound was not present; read-out: Inhibition (percentage reduction of bundle activity). How it is done:
Recombinant human fascin 1 was expressed as a GST fusion protein in BL21 Escherichia coli. One liter of 2YT medium with ampicillin was inoculated overnight with 3 mL of BL21/DE3 culture transformed with pGEX4T-fascin 1 plasmid and grown at 37° C. until attenuance at 600 nm (D600) reached about 0.8. The culture was then transferred to 18° C. and induced by the addition of 0.1 mM isopropyl β-d-thiogalactoside (IPTG) for 12 h. Bacteria were harvested by centrifugation at 5,000 r.p.m. for 10 min. The pellets were suspended in 30 mL of PBS supplemented with 0.2 mM PMSF, 1 mM DTT, 1% (v/v) Triton X-100 and 1 mM EDTA. After sonication, the suspension was centrifuged at 15,000 r.p.m. for 30 min to remove the cell debris. The supernatant was then incubated for 2 h with 4 mL of glutathione beads (Sigma) at 4° C. After extensive washing with PBS, the beads were resuspended in 10 mL of thrombin cleavage buffer (20 mM Tris-HCl pH 8.0, 150 mM NaCl, 2 mM CaCl2, 1 mM DTT). Fascin was released from the beads by incubation overnight with 40-100 U of thrombin at 4° C. After centrifugation, 0.2 mM PMSF was added to the supernatant to inactivate the remnant thrombin activity. The fascin protein was further concentrated with a Centricon® (Boca Raton, Fla.) filter to about 50 mg/mL.
Representative compounds described herein were tested for fascin inhibition activity. Purified fascin protein (15 μL of 0.5 μM) in buffer (100 mM KCl, 20 mM Tris/HCl, pH 7.5, 2 mM MgCl2) was added into each well of a clear 384-well flat-bottom plate (Corning) using Thermo Multidrop Combi (Fisher). Compound solutions (5 mM stock, 180 nL) were pin transferred from stock 384-well plates into the 384-well assay plates and incubated for 30 min. Then 15 μL of 0.5 μM polymerized actin (in 100 mM KCl, 20 mM Tris/HCl, pH 7.5, 2 mM MgCl2, 1 mM DTT, 1 mM ATP) (Cytoskeleton Inc.) was added, resulting in 30 μM final concentration for chemical compounds. […] Mixed solution (25 μL) was then transferred to one well in a black 384-well plate coated with poly-D-lysine, and stained actin bundles or F-actin would stick onto the poly-D-lysine plates. After the plates were thoroughly washed with 1×PBS for 3 times, the plate was imaged using an ImageXpress Micro High Content Screening System (Molecular devices). The images were processed and analyzed using MetaMorph software. The raw image data for each well was background-corrected by subtraction of the median intensities across all wells on the plate. The background-corrected data was used to compute the bundle length for each well. The negative control wells were employed for quality control: multiple DMSO-only control wells (16 wells/plate) were present on each assay plate.

`Cc1ccc(Cn2nc(NC(=O)c3ccno3)c3ccccc32)cc1` [Compound 80, N-(1-(4-methylbenzyl)-1H-indazol-3-yl)isoxazole-5-carboxamide]: the inhibition at 50 µM is 50%.
With `Cc1ccc(Cn2nc(NC(=O)c3ccoc3C)c3ccccc32)cc1` [Compound 81, 2-methyl-N-(1-(4-methylbenzyl)-1H-indazol-3-yl)furan-3-carboxamide], the inhibition at 50 µM was < 10%.
Turning to `Cc1ccc(Cn2nc(NC(=O)c3scnc3C)c3ccccc32)cc1` [Compound 82, 4-methyl-N-(1-(4-methylbenzyl)-1H-indazol-3-yl)thiazole-5-carboxamide], the inhibition at 50 µM was < 10%.
Consider `Cc1ccc(Cn2nc(NC(=O)c3cccnn3)c3ccccc32)cc1` [Compound 83, N-(1-(4-methylbenzyl)-1H-indazol-3-yl)pyridazine-3-carboxamide], for which the inhibition at 50 µM was < 10%.
Turning to `N#Cc1ccc(Cn2nc(N)c3ccccc32)cc1` [Compound 84, 4-((3-amino-1H-indazol-1-yl)methyl)benzonitrile], the inhibition at 50 µM was < 10%.
With `N#Cc1ccc(Cn2nc(NC(=O)c3ccoc3)c3ccccc32)cc1` [Compound 85, N-(1-(4-cyanobenzyl)-1H-indazol-3-yl)furan-3-carboxamide], the inhibition at 50 µM was < 10%.
For `Cc1nocc1C(=O)Nc1nn(Cc2ccc(C#N)cc2)c2ccccc12` [Compound 86, N-(1-(4-cyanobenzyl)-1H-indazol-3-yl)-3-methylisoxazole-4-carboxamide], the inhibition at 50 µM was < 10%.
As to `N#Cc1ccc(Cn2nc(NC(=O)c3ccno3)c3ccccc32)cc1` [Compound 87, N-(1-(4-cyanobenzyl)-1H-indazol-3-yl)isoxazole-5-carboxamide], the inhibition at 50 µM was < 10%.
Turning to `Cc1occc1C(=O)Nc1nn(Cc2ccc(C#N)cc2)c2ccccc12` [Compound 88, N-(1-(4-cyanobenzyl)-1H-indazol-3-yl)-2-methylfuran-3-carboxamide], the inhibition at 50 µM is < 10%.
`N#Cc1ccc(Cn2nc(NC(=O)c3cccnn3)c3ccccc32)cc1` [Compound 90, N-(1-(4-cyanobenzyl)-1H-indazol-3-yl)pyridazine-3-carboxamide]: the inhibition at 50 µM is < 10%.
The same measure for `Nc1nn(Cc2ccc(C(F)(F)F)nc2)c2ccccc12` [Compound 91, 1-((6-(trifluoromethyl)pyridine-3-yl)methyl)-1H-indazol-3-amine]: < 10%; for `O=C(Nc1nn(Cc2ccc(C(F)(F)F)nc2)c2ccccc12)c1ccoc1` [Compound 92, N-(1-((6-(trifluoromethyl)pyridine-3-yl)methyl)-1H-indazol-3-yl)furan-3-carboxamide]: < 10%; for `Cc1nocc1C(=O)Nc1nn(Cc2ccc(C(F)(F)F)nc2)c2ccccc12` [Compound 93, 3-methyl-N-(1-((6-(trifluoromethyl)pyridin-3-yl)methyl)-1H-indazol-3-yl)isoxazole-4-carboxamide]: < 10%.
Consider `Cc1occc1C(=O)Nc1nn(Cc2ccc(C(F)(F)F)nc2)c2ccccc12` [Compound 94, 2-methyl-N-(1-((6-(trifluoromethyl)pyridin-3-yl)methyl)-1H-indazol-3-yl)furan-3-carboxamide], for which the inhibition at 50 µM is < 10%.
Turning to `Cc1ncsc1C(=O)Nc1nn(Cc2ccc(C(F)(F)F)nc2)c2ccccc12` [Compound 95, 4-methyl-N-(1-((6-(trifluoromethyl)pyridin-3-yl)methyl)-1H-indazol-3-yl)thiazole-5-carboxamide], the inhibition at 50 µM was < 10%.
For `O=C(Nc1nn(Cc2ccc(C(F)(F)F)nc2)c2ccccc12)c1cccnn1` [Compound 96, N-(1-((6-(trifluoromethyl)pyridin-3-yl)methyl)-1H-indazol-3-yl)pyridazine-3-carboxamide], the inhibition at 50 µM is < 10%.
The value for `N#Cc1ccc2c(c1)c(N)nn2Cc1ccc(C(F)(F)F)nc1` [Compound 97, 3-amino-1-((6-(trifluoromethyl)pyridin-3-yl)methyl)-1H-indazole-5-carbonitrile] was < 10%.
For the molecule `N#Cc1ccc2c(c1)c(NC(=O)c1ccoc1)nn2Cc1ccc(C(F)(F)F)nc1` [Compound 98, N-(5-cyano-1-((6-(trifluoromethyl)pyridin-3-yl)methyl)-1H-indazol-3-yl)furan-3-carboxamide], the inhibition at 50 µM was < 10%.
With `Cc1nocc1C(=O)Nc1nn(Cc2ccc(C(F)(F)F)nc2)c2ccc(C#N)cc12` [Compound 99, N-(5-cyano-1-((6-(trifluoromethyl)pyridin-3-yl)methyl)-1H-indazol-3-yl)-3-methylisoxazole-4-carboxamide], the inhibition at 50 µM is < 10%.
With `Cc1occc1C(=O)Nc1nn(Cc2ccc(C(F)(F)F)nc2)c2ccc(C#N)cc12` [Compound 100, N-(5-cyano-1-((6-(trifluoromethyl)pyridin-3 - yl)methyl)-1H-indazol-3-yl)-2-methylfuran-3-carboxamide], the inhibition at 50 µM was < 10%.
As to `Cc1ncsc1C(=O)Nc1nn(Cc2ccc(C(F)(F)F)nc2)c2ccc(C#N)cc12` [Compound 101, N-(5-cyano-1-((6-(trifluoromethyl)pyridin-3-yl)methyl)-1H-indazol-3-yl)-4-methylthiazole-5-carboxamide], the inhibition at 50 µM is < 10%.
As for `Nc1nn(Cc2ccc(CO)cc2)c2ccccc12` [Compound 103, (4-((3-amino-1H-indazol-1-yl)methyl)phenyl)methanol], the inhibition at 50 µM was < 10%.
The same measure for `O=C(Nc1nn(Cc2ccc(CO)cc2)c2ccccc12)c1ccoc1` [Compound 104, N-(1-(4-(hydroxymethyl)benzyl)-1H-indazol-3-yl)furan-3-carboxamide]: < 10%; for `O=C(Nc1cn(Cc2ccc(C(F)(F)F)cc2)c2ccccc12)c1ccoc1` [Compound 105, N-(1-(4-(trifluoromethyl)benzyl)-1H-indol-3-yl)furan-3-carboxamide]: < 10%.
Regarding `Nc1nn(Cc2ccc(C(F)(F)F)cc2)c2cc(C(F)(F)F)ccc12` [Compound 106, 6-(trifluoromethyl)-1-(4-(trifluoromethyl)benzyl)-1H-indazol-3-amine], the inhibition at 50 µM is < 10%.
The value for `O=C(Nc1nn(Cc2ccc(C(F)(F)F)cc2)c2cc(C(F)(F)F)ccc12)c1ccoc1` [Compound 107, N-(6-(trifluoromethyl)-1-(4-(trifluoromethyl)benzyl)-1H-indazol-3-yl)furan-3-carboxamide] was < 10%.
As to `Cc1nocc1C(=O)Nc1nn(Cc2ccc(C(F)(F)F)cc2)c2cc(C(F)(F)F)ccc12` [Compound 108], the inhibition at 50 µM was < 10%.
Turning to `Cc1occc1C(=O)Nc1nn(Cc2ccc(C(F)(F)F)cc2)c2cc(C(F)(F)F)ccc12` [Compound 109], the inhibition at 50 µM was < 10%.
For `Cc1ncsc1C(=O)Nc1nn(Cc2ccc(C(F)(F)F)cc2)c2cc(C(F)(F)F)ccc12` [Compound 110, 4-methyl-N-(6-(trifluoromethyl)-1-(4-(trifluoromethyl)benzyl)-1H-indazol-3-yl)thiazole-5-carboxamide], the inhibition at 50 µM is < 10%.
The value for `Nc1nn(Cc2ccc(C(F)(F)F)cc2)c2c(C(F)(F)F)cccc12` [Compound 111, 7-(trifluoromethyl)-1-(4-(trifluoromethyl)benzyl)-1H-indazol-3-amine] was < 10%; that for `O=C(Nc1nn(Cc2ccc(C(F)(F)F)cc2)c2c(C(F)(F)F)cccc12)c1ccoc1` [Compound 112, N-(7-(trifluoromethyl)-1-(4-(trifluoromethyl)benzyl)-1H-indazol-3-yl)furan-3-carboxamide] was < 10%.
For `Cc1nocc1C(=O)Nc1nn(Cc2ccc(C(F)(F)F)cc2)c2c(C(F)(F)F)cccc12` [Compound 113, 3-methyl-N-(7-(trifluoromethyl)-1-(4-(trifluoromethyl)benzyl)-1H-indazol-3-yl)isoxazole-4-carboxamide], the inhibition at 50 µM is < 10%.
The same measure for `Cc1occc1C(=O)Nc1nn(Cc2ccc(C(F)(F)F)cc2)c2c(C(F)(F)F)cccc12` [Compound 114, 2-methyl-N-(7-(trifluoromethyl)-1-(4-(trifluoromethyl)benzyl)-1H-indazol-3-yl)furan-3-carboxamide]: < 10%.
